Square brackets hold non-standard residues; d marks the D form. Ends that are not written are not given here.
T1: GIPR-SmBiT (UniProt P48546)
T1 sequence: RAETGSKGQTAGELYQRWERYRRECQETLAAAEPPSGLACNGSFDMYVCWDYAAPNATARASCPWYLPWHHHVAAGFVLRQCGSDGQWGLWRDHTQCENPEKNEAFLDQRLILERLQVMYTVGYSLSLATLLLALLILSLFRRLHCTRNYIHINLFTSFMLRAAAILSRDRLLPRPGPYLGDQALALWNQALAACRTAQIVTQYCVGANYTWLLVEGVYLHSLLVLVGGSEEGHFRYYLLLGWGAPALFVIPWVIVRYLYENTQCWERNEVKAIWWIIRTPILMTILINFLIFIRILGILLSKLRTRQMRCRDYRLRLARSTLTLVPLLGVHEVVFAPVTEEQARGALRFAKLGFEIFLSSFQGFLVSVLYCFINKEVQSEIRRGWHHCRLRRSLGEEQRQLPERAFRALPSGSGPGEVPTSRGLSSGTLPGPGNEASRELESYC

T2: GIPR (Homo sapiens, UniProt P48546)
T2 sequence (P48546 22-466): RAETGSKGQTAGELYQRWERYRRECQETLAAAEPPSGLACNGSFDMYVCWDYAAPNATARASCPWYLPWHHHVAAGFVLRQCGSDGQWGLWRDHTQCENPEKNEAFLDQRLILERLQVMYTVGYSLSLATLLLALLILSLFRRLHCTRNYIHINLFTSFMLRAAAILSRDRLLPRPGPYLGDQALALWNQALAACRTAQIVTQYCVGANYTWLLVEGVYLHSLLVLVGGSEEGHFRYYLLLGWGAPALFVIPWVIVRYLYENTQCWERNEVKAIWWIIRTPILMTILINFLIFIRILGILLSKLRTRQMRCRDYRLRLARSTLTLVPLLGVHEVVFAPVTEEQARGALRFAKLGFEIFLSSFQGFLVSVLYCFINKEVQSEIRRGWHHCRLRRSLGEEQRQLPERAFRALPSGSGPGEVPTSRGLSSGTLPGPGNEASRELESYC


Legend:
GIPR-SmBiT [1] = target: T1, GIPR-SmBiT; assay: split reporter (BiFC, NanoBiT); NanoBiT complementation in HEK293T cells co-transfected with receptor-SmBiT and LgBiT-tagged effector; furimazine; 37 °C; baseline 5 min, then 100 nM cognate agonist (GLP-1, GIP or GCG) or vehicle, luminescence over 30 min, normalised to baseline and vehicle
GLP-1R-SmBiT = GLP-1R-SmBiT (UniProt P43220); assay: as above
GIPR [2] = target: T2, GIPR; assay: cAMP response (HTRF) in PathHunter CHO-GIPR cells; format: cell-based; settings: for Emax: read-out: cAMP Emax (% GIP)
GIPR [3] = target: T2, GIPR; assay: β-arrestin-2 recruitment by enzyme fragment complementation (PathHunter) CHO-GIPR; format: cell-based; settings: for Emax: read-out: βarr2 Emax (% GIP)
GLP-1R [4] = target: T3, GLP-1R (Homo sapiens, UniProt P43220); assay: cAMP response (HTRF) in PathHunter CHO-GLP-1R cells; format: cell-based; settings: read-out: cAMP Emax (% GLP-1)
GLP-1R [5] = target: T3, GLP-1R; assay: β-arrestin-2 recruitment by enzyme fragment complementation (PathHunter) CHO-GLP-1R; format: cell-based; settings: read-out: βarr2 Emax (% GLP-1)
GIPR-SmBiT [6] = target: T1, GIPR-SmBiT
GIPR-SmBiT [7] = target: T1, GIPR-SmBiT; remark: listed apart in the source

T3 sequence (P43220 24-463): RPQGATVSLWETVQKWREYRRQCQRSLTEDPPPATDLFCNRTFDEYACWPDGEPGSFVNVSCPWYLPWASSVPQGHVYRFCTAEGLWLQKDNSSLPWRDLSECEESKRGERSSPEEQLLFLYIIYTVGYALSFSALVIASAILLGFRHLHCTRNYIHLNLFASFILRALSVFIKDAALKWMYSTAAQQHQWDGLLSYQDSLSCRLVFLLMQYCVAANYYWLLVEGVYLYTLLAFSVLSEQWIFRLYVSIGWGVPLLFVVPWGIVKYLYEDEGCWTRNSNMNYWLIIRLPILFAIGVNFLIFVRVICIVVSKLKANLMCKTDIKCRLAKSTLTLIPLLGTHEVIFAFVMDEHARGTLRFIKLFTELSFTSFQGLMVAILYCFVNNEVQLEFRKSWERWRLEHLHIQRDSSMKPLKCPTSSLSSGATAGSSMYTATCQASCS
GLP-1R-SmBiT, sequence (P43220 24-463): as above

Molecule	EC50 (GIPR [2]) [nM]	Emax (GIPR [2]) [%]	EC50 (GIPR [3]) [nM]	Emax (GIPR [3]) [%]	also measured
LgBiT-mini-Gs					t1/2 of ligand-induced mini-Gs recruitment (GIPR-SmBiT [1]): 7.1 min; t1/2 of ligand-induced mini-Gs recruitment (GLP-1R-SmBiT): 1.5 min
YA[dQ]GTFISDYSIAMDKIHQQDFVNWLLAQKGKKNDWKHNITQ [GIP-dGln3]	25.1	110 ± 4	316	23 ± 1	
CC[C@H](C)[C@H](NC(=O)[C@H](Cc1ccccc1)NC(=O)[C@H](CCC(=O)O)NC(=O)[C@H](CCCCN)NC(=O)[C@H](C)NC(=O)[C@H](C)NC(=O)[C@H](CCC(N)=O)NC(=O)CNC(=O)[C@H](CCC(=O)O)NC(=O)[C@H](CC(C)C)NC(=O)[C@H](Cc1ccc(O)cc1)NC(=O)[C@H](CO)NC(=O)[C@H](CO)NC(=O)[C@@H](NC(=O)[C@H](CC(=O)O)NC(=O)[C@H](CO)NC(=O)[C@@H](NC(=O)[C@H](Cc1ccccc1)NC(=O)[C@@H](NC(=O)CNC(=O)[C@H](CCC(=O)O)NC(=O)CNC(=O)[C@@H](N)Cc1c[nH]cn1)[C@@H](C)O)[C@@H](C)O)C(C)C)C(=O)N[C@@H](C)C(=O)N[C@@H](Cc1c[nH]c2ccccc12)C(=O)N[C@@H](CC(C)C)C(=O)N[C@H](C(=O)N[C@@H](CCCCN)C(=O)NCC(=O)N[C@@H](CCCNC(=N)N)C(N)=O)C(C)C [GLP-1-Gly2]					Emax (GLP-1R [4]): 95 ± 4%; Emax (GLP-1R [5]): 93 ± 3%
YGEGTFISDYSIAMDKIHQQDFVNWLLAQKGKKNDWKHNITQ [GIP-Gly2]	0.794	100 ± 4	316	66 ± 7	
FAEGTFISDYSIAMDKIHQQDFVNWLLAQKGKKNDWKHNITQ [GIP-Phe1]	2	99 ± 3	1000	65 ± 3	
CC[C@H](C)[C@H](NC(=O)[C@H](Cc1ccccc1)NC(=O)[C@H](CCC(=O)O)NC(=O)[C@H](CCCCN)NC(=O)[C@H](C)NC(=O)[C@H](C)NC(=O)[C@H](CCC(N)=O)NC(=O)CNC(=O)[C@H](CCC(=O)O)NC(=O)[C@H](CC(C)C)NC(=O)[C@H](Cc1ccc(O)cc1)NC(=O)[C@H](CO)NC(=O)[C@H](CO)NC(=O)[C@@H](NC(=O)[C@H](CC(=O)O)NC(=O)[C@H](CO)NC(=O)[C@@H](NC(=O)[C@H](Cc1ccccc1)NC(=O)[C@@H](NC(=O)CNC(=O)[C@@H](CCC(N)=O)NC(=O)[C@H](C)NC(=O)[C@@H](N)Cc1c[nH]cn1)[C@@H](C)O)[C@@H](C)O)C(C)C)C(=O)N[C@@H](C)C(=O)N[C@@H](Cc1c[nH]c2ccccc12)C(=O)N[C@@H](CC(C)C)C(=O)N[C@H](C(=O)N[C@@H](CCCCN)C(=O)NCC(=O)N[C@@H](CCCNC(=N)N)C(N)=O)C(C)C [GLP-1-dGln3]					Emax (GLP-1R [4]; 30-min stimulation, 37 °C, no phosphodiesterase inhibitors, 4-parameter fit, mean ± SEM, n = 5): 106 ± 5%; Emax (GLP-1R [5]; 30 min at 37 °C, 4-parameter fit, mean ± SEM, n = 5): 60 ± 4%
YAEGTFISDYSIAMDKIHQQDFVNWLLAQKGKKNDWKHNITQ [GIP(1–42)]					cAMP (HTRF), Log EC50, 10 min stimulation, wildtype HEK293 cells transiently transfected with SNAP-GIPR (GIPR-SmBiT [6]): -9.4 Log EC50 (M); cAMP (HTRF), Log EC50, 10 min stimulation, β-arrestin-1/2 knockout HEK293 cells transiently transfected with SNAP-GIPR (GIPR-SmBiT [6]): -9.1 Log EC50 (M); cAMP (HTRF), Log EC50, 60 min stimulation, wildtype HEK293 cells transiently transfected with SNAP-GIPR (GIPR-SmBiT [6]): -9.6 Log EC50 (M); cAMP (HTRF), Log EC50, 60 min stimulation, β-arrestin-1/2 knockout HEK293 cells transiently transfected with SNAP-GIPR (GIPR-SmBiT [6]): -9.7 Log EC50 (M); cytoplasmic PKA activation (AKAR4-NES FRET, AUC), Log EC50, wildtype HEK293 cells co-transfected with SNAP-GIPR (GIPR-SmBiT [7]): -10.1 Log EC50 (M); cytoplasmic PKA activation (AKAR4-NES FRET, AUC), Log EC50, β-arrestin-1/2 knockout HEK293 cells co-transfected with SNAP-GIPR (GIPR-SmBiT [7]): -10.9 Log EC50 (M)
